Values of other authors in patent publication US12458589B2, “Implantable polymer depots for the controlled release of therapeutic agents” (Foundry Therapeutics, Inc., priority 2018, dated 2025).
Where two headings read alike, the source gives them in different places.

Key:
[1] = not given; remark: listed apart in the source

## CCCCN1CCCCC1C(=O)Nc1c(C)cccc1C (centres unmarked) [bupivacaine]
other
  generally regarded as safe plasma level: 1,000 ng/mL
[1]
  generally regarded as safe plasma level: 1,000 ng/mL
